{"source": "patent US20040214799A1", "about": "“Cancerous metastasis inhibitors containing carbacyclic phosphatidic acid derivatives” (priority 2001, published 2004)", "key": {"[1]": {"test_system": "MM1 cells", "experiment": "Effect on the proliferation of MM1 cells", "type": "cell-based, rat", "conditions": "12.5 μM or 25 μM cPA, 10% FBS, 24 hours and 72 hours", "experimental": "12.5 μM and 25 μM cPA were added to media containing 10% FBS, and then the cells were cultured under conditions of 37° C. and 5% CO2 for 24 hours and 72 hours. The number of the MM1 cells was counted using a hemocytometer."}, "[2]": {"test_system": "MM1 cells", "experiment": "In vitro invasion assay, LPA-induced invasion of MM1 cells across mesothelial cell monolayer", "type": "cell-based, rat", "conditions": "25 μM LPA; for invasion suppressing activity on LPA-induced invasion, carba-cPA at low concentration (in words): 0.5 μM, 1 μM or 10 μM carba-cPA", "experimental": "The abdomen of a male DONRYU rat (300 g, NIPPON BIO-SUPP. CENTER) was opened aseptically. The thus obtained mesenterium was treated with 0.25% trypsin at 37° C. for 15 minutes, filtrated with a 150 μm stainless mesh, and then centrifuged to collect mesothelial cells. The cells were cultured under conditions of 37° C. and 5% CO2 in a medium which was obtained by adding 10% FBS to Eagle's MEMI (Nissui) supplemented with Eagle's MEM amino acid vitamin medium (Nissui) in a volume twice as great as that of the MEMI. A mesothelial cell monolayer which had reached a confluent density after 1 week of culturing was used for invasion assay.\nThe MM1 cells, which are highly invasive clones of rat ascites hepatoma cells (AH-130), were established by Mukai et al., (Int. J. Cancer : 81, 918-922 (1999)), and was cultured under the same conditions as those for mesothelial cells.\nIn vitro invasion assay was developed by Akedo et al (Akedo, H et al., Cancer Res. 46, 2416-2422 (1986)). MM1 cells were multi-layer-cultured on the mesothelial cell layer, which had been grown to reach a confluent density, in the presence of 10% FBS or 25 μM LPA (SIGMA). 25 μM cPA was then added. The cells were cultured under conditions of 37° C. and 5% CO2 for 20 hours, and then fixed with 10% formalin. The number of colonies of MM1 cells that had invaded was counted under a phase-contrast microscope (FIG. 3).\ncPA and LPA were ice-cooled in PBS containing 0.1% fatty-acid free BSA (SIGMA), ultrasonicated, emulsified, stored at −20° C., and then used.\n0.5 μM, 1 μM and 10 μM carba-cPA were added to MM1 cells, and then in vitro invasion assay was performed similarly to (1-1) in the presence of 25 μM LPA.\nThe following reagents were respectively added to an in vitro invasion assay system so as to examine their effects on MM1 cell invasion in the presence of 25 μM LPA: Forskolin (Wako) which directly activates adenylate cyclase (cAMP synthase); cholera toxin (CTX) (GIBCO BRL) which prevent the deactivation of G protein (Gs) which activates adenylate cyclase; Bt2cAMP (nacalai tesque) which can pass through the membrane and functions in a manner similar to that of cAMP when it enters the cell; or isobutylmethylxanthine (IBMX, 3-isobutyl-1-methylxanthine) (SIGMA) which inhibits phosphodiesterase (cAMP degrading enzyme)."}}, "data": [{"compound": "CCCCCCCCCCCCCCCC(=O)OC[C@@H]1COP(=O)(O)O1", "note": "[cPA-5, Pal-cPA, reference compound]", "values": [{"measurement": "effect on MM1 cell proliferation (in words)", "setting": "[1]", "value": "no effect on MM1 cell proliferation"}, {"measurement": "suppression of LPA-induced invasion (in words)", "setting": "[2]; 25 μM cPA derivative, 20 hours", "value": "suppressed"}]}, {"compound": "carba-Ole-cPA [cPA-19]", "values": [{"measurement": "effect on MM1 cell proliferation (in words)", "setting": "[1]", "value": "showed proliferation suppressing activity"}, {"measurement": "invasion suppressing activity on LPA-induced invasion, carba-cPA at low concentration (in words)", "setting": "[2]", "value": "stronger invasion suppressing activity than cPA-18"}]}, {"compound": "carba-ΔPal-cPA [cPA-20]", "values": [{"measurement": "effect on MM1 cell proliferation (in words)", "setting": "[1]", "value": "showed proliferation suppressing activity"}, {"measurement": "invasion suppressing activity on LPA-induced invasion, carba-cPA at low concentration (in words)", "setting": "[2]", "value": "stronger invasion suppressing activity than cPA-18"}]}]}
